Measurements reported in patent publication US8048916B2, “Ester compound and use thereof” (Sumitomo Chemical Company, Limited, priority 2007, dated 2011).

The molecules below were run on houseflies (assay: Test Example 2: knock-down test on houseflies in a 70 cm cubic chamber (KT50)). Conditions: 0.00625% (w/v), 0.7 ml sprayed into 70 cm cubic chamber, knock-down counted until 10 minutes.
Assay type: in vivo, housefly
Protocol: Each of the compositions of the compounds (1) and (2) of the present invention obtained by Formulation Example 7 was diluted with mixed liquid of dichloromethane/deodorized kerosine=1/9 (w/w) so that the effective ingredient concentration became 0.00625% (w/v) to prepare a test solution.
Ten houseflies were released in a cubic chamber having a side of 70 cm to spray 0.7 ml of the above-mentioned oil-based preparation into the chamber through a small window on the side face of the chamber at a spray pressure of 0.9 kg/cm^2 with a spray gun. Then, the number of houseflies knocked down was counted with time until 10 minutes later (two repetitions each). The effect was evaluated with 4 grades of ⊙ to × as described below by means of a KT50 value calculated from the obtained results.
As a control test, the similar tests were performed by using as comparative reference compounds 2,3,5,6-tetrafluoro-4-methoxymethylbenzyl (1R,3S)-3-((E)-2-cyano-2-fluorovinyl)-2,2-dimethylcyclopropanecarboxylate
`COCc1c(F)c(F)c(COC(=O)[C@@H]2C(/C=C(\Cl)C#N)C2(C)C)c(F)c1F` (stereo in doubt) [compound (1), 2,3,5,6-tetrafluoro-4-methoxymethylbenzyl (1R,3S)-3-((Z)-2-chloro-2-cyanovinyl)-2,2-dimethylcyclopropanecarboxylate] was tested, and the “Efficacy (grade by KT50 value)” value was “◯ (KT50 value is 2 minutes or more and less than 3 minutes)”. For `COCc1c(F)c(F)c(COC(=O)[C@@H]2C(/C=C(/Cl)C#N)C2(C)C)c(F)c1F` (stereo in doubt) [compound (2), 2,3,5,6-tetrafluoro-4-methoxymethylbenzyl (1R,3S)-3-((E)-2-chloro-2-cyanovinyl)-2,2-dimethylcyclopropanecarboxylate], the “Efficacy (grade by KT50 value)” value was “⊙ (KT50 value is less than 2 minutes)”. `COCc1c(F)c(F)c(COC(=O)[C@@H]2C(C=C(F)C#N)C2(C)C)c(F)c1F` (stereo in doubt) [control compound (A), 2,3,5,6-tetrafluoro-4-methoxymethylbenzyl (1R,3S)-3-((E)-2-cyano-2-fluorovinyl)-2,2-dimethylcyclopropanecarboxylate] was tested, and the “Efficacy (grade by KT50 value)” value was “X (KT50 value is 4 minutes or more)”. For `COCc1c(F)c(F)c(COC(=O)[C@@H]2C(C=C(F)C#N)C2(C)C)c(F)c1F` (stereo in doubt) [control compound (B), 2,3,5,6-tetrafluoro-4-methoxymethylbenzyl (1R,3S)-3-((Z)-2-cyano-2-fluorovinyl)-2,2-dimethylcyclopropanecarboxylate], the “Efficacy (grade by KT50 value)” value was “Δ (KT50 value is 3 minutes or more and less than 4 minutes)”.
